In test [1] the test system is BR-biosynthetic, BR signaling and BR-induced genes. The test is described as follows: Real time PCR of BR pathway genes. Conditions: 30 μM, 2 hours. In kind it is in vivo, Arabidopsis thaliana. On the procedure: FIG. 7: Q-PCR analysis of genes involved in BR biosynthesis. WT Arabidopsis plants were treated with abrasin (indicated as I5) for 2 hours at a concentration of 30 μM and/or with CHX at a concentration of 30 μM and RNA was extracted from whole plants.
(§1) FIG. 8: A: Western Blot analysis of the BES1 protein in 35S:BES1:GFP plants treated with BL and abrasin (indicated as I5 throughout the figure) (A); MG132 with BL or abrasin (B); a time course with abrasin (C) and a concentration gradient with abrasin (D). B: Abrasin and BL induce similar transcriptional regulation of the BR pathway.
RNA was extracted with the RNeasy kit. Poly(dT) cDNA was prepared from […] of total RNA with Superscript III reverse transcriptase (Invitrogen) and quantified on an LightCycler 480 apparatus (Roche) with the SYBR Green I Master kit (Roche) according to the manufacturer's instructions. Target quantifications were performed with specific primer pairs designed with the Beacon Designer 4.0 (Premier Biosoft International). All PCRs were performed in triplicate.
The primers used to quantify gene expression levels were for BAS 1: 5′-[…]-3′ and 5′-[…]-3′; BR6Ox1: 5′-TGGCCAATCTTTGGCGAA-3′ and 5′-[…]-3′; BR6Ox2: 5′-[…]-3′ and 5′-[…]-3′; BRI1: 5′-[…]-3′ and 5′-[…]-3′; CPD: 5′-[…]-3′ and 5′-[…]-3′; DWF4: 5′-[…]-3′ and 5′-[…]-3′ ROT3: 5′-ATTGGCGCGTTCCTCAGAT-3′ and 5′-[…]-3′; BES1: 5′-[…]-3′ and 5′-[…]-3′; BIN2: 5′-[…]-3′ and 5′-[…]-3′; BSU 1: 5′-[…]-3′ and 5′-[…]-3′; BZR1: 5′-[…]-3′ and 5′-[…]-3′; CDKA1; 1: 5′-[…]-3′ and 5′-[…]-3′; EEF1α: 5′-[…]-3′ and 5′-[…]-3′; BKI1: 5′-GCTCCGGCGTCGATGA-3′ and 5′-[…]-3′.

Test [2] deals with BES1 protein in 35S:BES1:GFP plants. Nature of the test: Western blot analysis of BES1 phosphorylation state. In kind it is in vivo, Arabidopsis thaliana. As to the method:
as §1
For protein extraction, six-day-old seedlings were grown under standard conditions as described earlier on solid medium. Plants were next soaked in liquid MS-medium supplemented with the indicated compounds (concentrations and time periods as indicated in figures). Subsequently, plants were frozen in liquid nitrogen, ground and homogenized in ice-cold homogenization buffer (25 mM Tris-HCl (pH 8), 5 mM EDTA, 1 mM β-Mercapto-ethanol, 15 mM MgCl—2, 85 mM NaCl, 0.1% Tween 20, 1 protease inhibitor tablet/50 ml, Complete (Roche diagnostics, Belgium)). The homogenate was centrifuged twice (5 min, 14.000 rpm, 4° C.) in an Eppendorf Centrifuge 5417. Loading buffer was added, the samples were heated for 10 min at 95° C. and centrifuged. The samples were separated on a 12% acrylamide gel or a 4-20% gradient pre-cast gel (Bio-Rad) and blotted on nitrocellulose membranes (Hybond-C super, GE-Biosciences, UK) in 190 mM glycine and 25 mM Tris-Hcl using a mini-blotting system (Bio-Rad, USA) for 1 h. Membranes were blocked overnight at 4° C. in phosphate buffer with 0.1% Tween 20 and 5% skim milk (BD Difco, USA). For immunodetection, anti-BES1 antibodies at 1:2000 dilution and anti-GFP antibodies at 1:1000 dilution were used as primary antibody. As secondary antibody, anti-rat and anti-rabbit were used at 1:10.000 dilution. The proteins were detected by chemiluminescence (Perkin-Elmer, USA).

Test [3] relates to Arabidopsis thaliana seedlings. Nature of the test: Lateral root formation / root elongation of seedlings on agar plates. Particulars: structural variants of abrasin. In kind it is in vivo. On the procedure: FIG. 3: (A) Phenotypic characterization. WT plants were grown under standard conditions on agar plates. […] Left panel: control plant. Middle panel: abrasin treated plant. Right panel: BL treated plant. (B) Dose response measurements of abrasin using lateral root formation as an indicator of brassinosteroid like activity. Error bars represent standard error of the mean. […] Osram) at 22° C. Three days after germination compounds were added to the 96-well plates at a final concentration of 50 μM. Plants were screened six days after germination for brassinosteroid-related phenotypes. For further phenotypical analysis, all plants were grown on vertically oriented square plates (Greiner Labortechnik, Austria) with solid medium derived from standard Murashige and Skoog medium under the same conditions. For the hypocotyl-elongation assay, plants were grown in the dark at 22° C. under the same conditions.

Peptide text beside a SMILES is read from it. * marks the point of attachment. Cbz = O=C(OCc1ccccc1)*

For `C[C@@H]1C[C@@H]([C@H](O)CC2CC(=O)NC(=O)C2)C(=O)[C@@H](C)C1` [CHX, cycloheximide, reference compound], the “expression of genes downstream of the BRI1 receptor” value in test [1] was “able to induce some of these genes”.

Consider `CC(C)C[C@@H](C=O)NC(=O)[C@H](CC(C)C)NC(=O)[C@H](CC(C)C)NC(=O)OCc1ccccc1` [MG132, Z-Leu-Leu-Leu-CHO, reference compound] (Cbz-Leu-Leu-Leu-aldehyde), for which, in test [2] (MG132 treatment), the “total amount of BES1 protein” value is on record as “an increase in the total amount of BES1”. For the same compound, in test [2] (addition of BL or MG132), the BES1 phosphorylation state result was “no shift in the ratio between the phosphorylated and the dephosphorylated form is observed”.

For `O=C(O)CCC(=O)Nc1ccc(F)cn1` [fluoro derivative, 4-[(5-fluoro-2-pyridinyl)amino]-4-oxobutanoic acid], the “effect on lateral root formation as indication of brassinosteroid like activity” value in test [3] is listed as “highest activity”.

These data come from patent publication US8273775B2, “Non-steroidal brassinosteroid mimetic” (priority 2006, dated 2012).
